{
  "source": "paper PMC9474474",
  "about": "“Determination of pharmacokinetics and tissue distribution of a novel lutetium-labeled PSMA-targeted ligand, ^177Lu-DOTA-PSMA-GUL, in rats by using LC–MS/MS” (Scientific Reports, 2022)",
  "experiment": "Tissue distribution at steady state after i.v. bolus loading dose plus i.v. infusion in rats",
  "type": "in vivo, Male Sprague–Dawley rats",
  "conditions": "for plasma concentration at steady state: from 1.5 h of i.v. infusion",
  "procedure": "Tissue distribution of ^175Lu-DOTA-PSMA-GUL was examined under two different steady-state conditions after i.v. infusion of ^175Lu-DOTA-PSMA-GUL. Two target steady-state plasma concentrations (Css) were set as 3000 and 6000 ng/mL. Rats were surgically cannulated with polyethylene tubing (0.58 mm i.d. and 0.96 mm o.d.; Natume, Tokyo, Japan) in the left jugular vein for blood sampling and femoral vein for i.v. injection and infusion. After one day of recovery, ^175Lu-DOTA-PSMA-GUL was administered by i.v. injection as a loading dose (LD) and i.v. infusion for 3 h to achieve the target Css. The i.v. bolus LD and i.v. infusion rates (K0) were calculated by LD = Css,target·Vss and K0 = Css,target·CL, respectively. […] The calculated LD was 0.60 mg/kg and 1.20 mg/kg for the target Css of 3,000 ng/mL and 6,000 ng/mL, respectively. The calculated K0 was 1.82 mg/h/kg and 3.65 mg/h/kg for the target Css of 3,000 ng/mL and 6,000 ng/mL, respectively.\nBlood samples were collected at 1.5, 2, 2.5, and 3 h during i.v. infusion, and centrifuged at 3,200 × g for 10 min. At the end of the infusion, rats were sacrificed, and brain, lung, heart, spleen, small intestine, stomach, kidney, liver, prostate, fat, muscle, and testis were excised and immediately homogenized in normal saline. All samples were stored at -70 °C until analysis.\nThe plasma concentration–time data were analyzed by non-compartmental method using Phoenix® WinNonlin® (Pharsight, NC, USA). The fraction of ^175Lu-DOTA-PSMA-GUL excreted into urine (Furine) and feces (Ffeces) were calculated by the ratio of the total amount of drug excreted in the urine and feces to the fraction of the dose, respectively. The tissue-to-plasma partition coefficients (KP) were calculated as the tissue-to-plasma concentration ratios.",
  "key": {"[1]": {"conditions": "steady state, average of both infusion levels"}},
  "data": [
    {"smiles": "O=C([O-])CN1CCN(CC(=O)[O-])CCN(CC(=O)[O-])C(Cc2ccc(NC(=S)NCCCC[C@H](NC(=O)N[C@@H](CCC(=O)O)C(=O)O)C(=O)O)cc2)CN(CC(=O)[O-])CC1.[Lu+3]", "note": "(stereo partly drawn) [^175Lu-DOTA-PSMA-GUL, Lutetium labeled-1,4,7,10-tetraazacyclododecane-1,4,7,10-tetraacetic acid (DOTA)-PSMA-GUL]", "values": [
      {"measurement": "Concentration, brain", "setting": "CSS,target = 3000 ng/mL", "value": "BLOQ"},
      {"measurement": "Concentration, fat", "setting": "CSS,target = 3000 ng/mL", "value": "320.68 ± 55.09", "unit": "ng/g"},
      {"measurement": "Concentration, heart", "setting": "CSS,target = 3000 ng/mL", "value": "645.67 ± 204.29", "unit": "ng/g"},
      {"measurement": "Concentration, kidney", "setting": "CSS,target = 3000 ng/mL", "value": "7253.09 ± 665.80", "unit": "ng/g"},
      {"measurement": "Concentration, liver", "setting": "CSS,target = 3000 ng/mL", "value": "949.81 ± 342.61", "unit": "ng/g"},
      {"measurement": "Concentration, lung", "setting": "CSS,target = 3000 ng/mL", "value": "962.76 ± 287.82", "unit": "ng/g"},
      {"measurement": "Concentration, muscle", "setting": "CSS,target = 3000 ng/mL", "value": "342.27 ± 188.70", "unit": "ng/g"},
      {"measurement": "Concentration, prostate", "setting": "CSS,target = 3000 ng/mL", "value": "2433.69 ± 2292.84", "unit": "ng/g"},
      {"measurement": "Concentration, small intestine", "setting": "CSS,target = 3000 ng/mL", "value": "741.67 ± 507.55", "unit": "ng/g"},
      {"measurement": "Concentration, spleen", "setting": "CSS,target = 3000 ng/mL", "value": "541.13 ± 52.33", "unit": "ng/g"},
      {"measurement": "Concentration, stomach", "setting": "CSS,target = 3000 ng/mL", "value": "276.46 ± 95.71", "unit": "ng/g"},
      {"measurement": "Concentration, testis", "setting": "CSS,target = 3000 ng/mL", "value": "504.17 ± 122.39", "unit": "ng/g"},
      {"measurement": "Tissue to plasma coefficient (KP), fat", "setting": "CSS,target = 3000 ng/mL", "value": "0.11 ± 0.02"},
      {"measurement": "Tissue to plasma coefficient (KP), heart", "setting": "CSS,target = 3000 ng/mL", "value": "0.23 ± 0.07"},
      {"measurement": "Tissue to plasma coefficient (KP), kidney", "setting": "CSS,target = 3000 ng/mL", "value": "2.56 ± 0.29"},
      {"measurement": "Tissue to plasma coefficient (KP), liver", "setting": "CSS,target = 3000 ng/mL", "value": "0.33 ± 0.11"},
      {"measurement": "Tissue to plasma coefficient (KP), lung", "setting": "CSS,target = 3000 ng/mL", "value": "0.34 ± 0.10"},
      {"measurement": "Tissue to plasma coefficient (KP), muscle", "setting": "CSS,target = 3000 ng/mL", "value": "0.12 ± 0.07"},
      {"measurement": "Tissue to plasma coefficient (KP), prostate", "setting": "CSS,target = 3000 ng/mL", "value": "0.86 ± 0.82"},
      {"measurement": "Tissue to plasma coefficient (KP), small intestine", "setting": "CSS,target = 3000 ng/mL", "value": "0.26 ± 0.18"},
      {"measurement": "Tissue to plasma coefficient (KP), spleen", "setting": "CSS,target = 3000 ng/mL", "value": "0.19 ± 0.02"},
      {"measurement": "Tissue to plasma coefficient (KP), stomach", "setting": "CSS,target = 3000 ng/mL", "value": "0.10 ± 0.04"},
      {"measurement": "Tissue to plasma coefficient (KP), testis", "setting": "CSS,target = 3000 ng/mL", "value": "0.18 ± 0.04"},
      {"measurement": "Concentration, plasma", "setting": "CSS,target = 3000 ng/mL, LD 0.60 mg/kg, infusion 1.82 mg/h/kg", "value": "2845.62 ± 111.43", "unit": "ng/mL"},
      {"measurement": "Concentration, brain", "setting": "CSS,target = 6000 ng/mL", "value": "BLOQ"},
      {"measurement": "Concentration, fat", "setting": "CSS,target = 6000 ng/mL", "value": "406.59 ± 77.17", "unit": "ng/g"},
      {"measurement": "Concentration, heart", "setting": "CSS,target = 6000 ng/mL", "value": "737.57 ± 453.10", "unit": "ng/g"},
      {"measurement": "Concentration, kidney", "setting": "CSS,target = 6000 ng/mL", "value": "14,455.60 ± 1272.17 ng/g"},
      {"measurement": "Concentration, liver", "setting": "CSS,target = 6000 ng/mL", "value": "1881.97 ± 267.48", "unit": "ng/g"},
      {"measurement": "Concentration, lung", "setting": "CSS,target = 6000 ng/mL", "value": "1480.52 ± 464.64", "unit": "ng/g"},
      {"measurement": "Concentration, muscle", "setting": "CSS,target = 6000 ng/mL", "value": "621.78 ± 419.81", "unit": "ng/g"},
      {"measurement": "Concentration, prostate", "setting": "CSS,target = 6000 ng/mL", "value": "8550.82 ± 7322.84", "unit": "ng/g"},
      {"measurement": "Concentration, small intestine", "setting": "CSS,target = 6000 ng/mL", "value": "1636.21 ± 1273.92", "unit": "ng/g"},
      {"measurement": "Concentration, spleen", "setting": "CSS,target = 6000 ng/mL", "value": "932.03 ± 368.50", "unit": "ng/g"},
      {"measurement": "Concentration, stomach", "setting": "CSS,target = 6000 ng/mL", "value": "612.39 ± 161.18", "unit": "ng/g"},
      {"measurement": "Concentration, testis", "setting": "CSS,target = 6000 ng/mL", "value": "877.83 ± 252.52", "unit": "ng/g"},
      {"measurement": "Tissue to plasma coefficient (KP), fat", "setting": "CSS,target = 6000 ng/mL", "value": "0.07 ± 0.02"},
      {"measurement": "Tissue to plasma coefficient (KP), heart", "setting": "CSS,target = 6000 ng/mL", "value": "0.13 ± 0.08"},
      {"measurement": "Tissue to plasma coefficient (KP), kidney", "setting": "CSS,target = 6000 ng/mL", "value": "2.61 ± 0.47"},
      {"measurement": "Tissue to plasma coefficient (KP), liver", "setting": "CSS,target = 6000 ng/mL", "value": "0.34 ± 0.05"},
      {"measurement": "Tissue to plasma coefficient (KP), lung", "setting": "CSS,target = 6000 ng/mL", "value": "0.26 ± 0.09"},
      {"measurement": "Tissue to plasma coefficient (KP), muscle", "setting": "CSS,target = 6000 ng/mL", "value": "0.11 ± 0.07"},
      {"measurement": "Tissue to plasma coefficient (KP), prostate", "setting": "CSS,target = 6000 ng/mL", "value": "1.54 ± 1.33"},
      {"measurement": "Tissue to plasma coefficient (KP), small intestine", "setting": "CSS,target = 6000 ng/mL", "value": "0.29 ± 0.23"},
      {"measurement": "Tissue to plasma coefficient (KP), spleen", "setting": "CSS,target = 6000 ng/mL", "value": "0.17 ± 0.08"},
      {"measurement": "Tissue to plasma coefficient (KP), stomach", "setting": "CSS,target = 6000 ng/mL", "value": "0.11 ± 0.04"},
      {"measurement": "Tissue to plasma coefficient (KP), testis", "setting": "CSS,target = 6000 ng/mL", "value": "0.15 ± 0.04"},
      {"measurement": "Concentration, plasma", "setting": "CSS,target = 6000 ng/mL, LD 1.20 mg/kg, infusion 3.65 mg/h/kg", "value": "5713.2 ± 523.23", "unit": "ng/mL"},
      {"measurement": "plasma concentration at steady state", "setting": "LD 0.60 mg/kg, infusion rate 1.82 mg/h/kg", "value": "approximately 3,000 ng/mL"},
      {"measurement": "plasma concentration at steady state", "setting": "LD 1.20 mg/kg, infusion rate 3.65 mg/h/kg", "value": "~6,000 ng/mL"},
      {"measurement": "detection in the brain", "setting": "steady state after i.v. infusion", "value": "not detected"},
      {"measurement": "average KP, kidneys", "setting": "[1]", "value": 2.58},
      {"measurement": "average KP, prostate", "setting": "[1]", "value": 1.20},
      {"measurement": "average KP, other tissues", "setting": "steady state, tissues other than kidneys and prostate", "value": "less than 0.34"}
    ]}
  ]
}
